The results in this text go back to patent publication US12479840B2, “HMG-CoA reductase degradation inducing compound” (Uppthera, priority 2020, dated 2025).

Usually DC50 stands for the concentration at which degradation of the target reaches its halfway point.

The target in the experiment is T1, HMG-CoA reductase (Homo sapiens, UniProt P04035).
T1 construct: endogenous in cells; host or cells: HepG2 (Korea Cell Line Bank)
T1 sequence (P04035 1-888): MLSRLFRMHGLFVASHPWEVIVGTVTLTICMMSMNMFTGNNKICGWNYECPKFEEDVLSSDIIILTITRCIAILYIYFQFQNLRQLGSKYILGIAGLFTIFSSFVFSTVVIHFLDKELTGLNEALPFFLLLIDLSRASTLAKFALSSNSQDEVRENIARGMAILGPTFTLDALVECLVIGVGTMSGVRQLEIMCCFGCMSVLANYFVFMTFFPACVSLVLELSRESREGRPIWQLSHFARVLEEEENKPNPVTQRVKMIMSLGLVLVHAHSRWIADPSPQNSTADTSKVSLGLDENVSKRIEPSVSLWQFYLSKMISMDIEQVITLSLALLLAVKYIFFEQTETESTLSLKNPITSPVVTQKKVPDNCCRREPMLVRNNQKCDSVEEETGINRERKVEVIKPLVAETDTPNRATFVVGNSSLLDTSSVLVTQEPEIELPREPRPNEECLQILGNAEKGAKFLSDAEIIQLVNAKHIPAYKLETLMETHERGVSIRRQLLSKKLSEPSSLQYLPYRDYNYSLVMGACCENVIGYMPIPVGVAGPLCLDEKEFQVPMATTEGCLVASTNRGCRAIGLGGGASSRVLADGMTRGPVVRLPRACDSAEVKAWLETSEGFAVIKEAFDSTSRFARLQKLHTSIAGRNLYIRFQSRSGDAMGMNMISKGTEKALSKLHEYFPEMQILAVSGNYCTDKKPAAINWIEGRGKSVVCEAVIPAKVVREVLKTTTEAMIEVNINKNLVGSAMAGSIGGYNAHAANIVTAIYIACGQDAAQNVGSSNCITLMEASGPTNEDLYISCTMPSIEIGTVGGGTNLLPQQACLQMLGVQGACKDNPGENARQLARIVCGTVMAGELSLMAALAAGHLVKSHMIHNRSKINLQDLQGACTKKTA
Description: HMG-CoA reductase (HMGCR) degradation in HepG2 cells by western blotting. The class given is cell-based. The note with it: treated for 18 hours, ratio of HMG-CoA reductase to GAPDH, read-out: DC50. Put shortly:
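Western blot read-out: HMGCR protein probed (1:500, 16 hours at 4° C) alongside GAPDH loading control on 15 μg BCA-normalised RIPA lysates. Lysates came from HepG2 cells (P105–P110) exposed for 18 hours to a 10-point, three-fold series starting at 3 μM.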
(In general: Immunoblotting shows a protein as a band on a membrane.)
Consider `C[C@H]1C=C2C=C[C@H](C)[C@H](CC[C@@H]3C[C@@H](O[Si](C)(C)C(C)(C)C)CC(=O)O3)[C@H]2[C@@H](OC(=O)N2CCC(CCOCCNc3cccc4c3C(=O)N(C3CCC(=O)NC3=O)C4=O)CC2)C1` (stereo partly drawn) [Compound 84, (1S,3R,7S,8S,8aR)-8-(2-((2R,4R)-4-((tert-butyldimethylsilyl)oxy)-6-oxotetrahydro-2H-pyran-2-yl)ethyl)-3,7-dimethyl-1,2,3,7,8,8a-hexahydronaphthalen-1-yl4-(2-(2-((2-(2,6-dioxopiperidin-3-yl)-1,3-dioxoisoindolin-4-yl)amino)ethoxy)ethyl)piperidine-1-carboxylate], for which the 50% degradation concentration (DC50) is < 50 nM.

As to `C[C@H]1C=C2C=C[C@H](C)[C@H](CC[C@@H]3C[C@@H](O)CC(=O)O3)[C@H]2[C@@H](OC(=O)N2CCC(CCOCCNc3cccc4c3C(=O)N(C3CCC(=O)NC3=O)C4=O)CC2)C1` (stereo partly drawn) [Compound 85, (1S,3R,7S,8S,8aR)-8-(2-((2R,4R)-4-hydroxy-6-oxotetrahydro-2H-pyran-2-yl)ethyl)-3,7-dimethyl-1,2,3,7,8,8a-hexahydronaphthalen-1-yl4-(2-(2-((2-(2,6-dioxopiperidin-3-yl)-1,3-dioxoisoindolin-4-yl)amino)ethoxy)ethyl)piperidine-1-carboxylate], the DC50 is < 50 nM.

For the compound `C[C@H]1C=C2C=C[C@H](C)[C@H](CC[C@@H]3C[C@@H](O[Si](C)(C)C(C)(C)C)CC(=O)O3)[C@H]2[C@@H](OC(=O)NCCOCCNc2cccc3c2C(=O)N(C2CCC(=O)NC2=O)C3=O)C1` (stereo partly drawn) [Compound 86, (1S,3R,7S,8S,8aR)-8-(2-((2R,4R)-4-((tert-butyldimethylsilyl)oxy)-6-oxotetrahydro-2H-pyran-2-yl)ethyl)-3,7-dimethyl-1,2,3,7,8,8a-hexahydronaphthalen-1-yl (2-(2-((2-(2,6-dioxopiperidin-3-yl)-1,3-dioxoisoindolin-4-yl)amino)ethoxy)ethyl)carbamate], the 50% degradation concentration (DC50) was < 50 nM.

On to `C[C@H]1C=C2C=C[C@H](C)[C@H](CC[C@@H]3C[C@@H](O)CC(=O)O3)[C@H]2[C@@H](OC(=O)NCCOCCNc2cccc3c2C(=O)N(C2CCC(=O)NC2=O)C3=O)C1` (stereo partly drawn) [Compound 87, (1S,3R,7S,8S,8aR)-8-(2-((2R,4R)-4-hydroxy-6-oxotetrahydro-2H-pyran-2-yl)ethyl)-3,7-dimethyl-1,2,3,7,8,8a-hexahydronaphthalen-1-yl (2-(2-((2-(2,6-dioxopiperidin-3-yl)-1,3-dioxoisoindolin-4-yl)amino)ethoxy)ethyl)carbamate], for which the 50% degradation concentration (DC50) is < 50 nM.

For `C[C@H]1C=C2C=C[C@H](C)[C@H](CC[C@@H]3C[C@@H](O[Si](C)(C)C(C)(C)C)CC(=O)O3)[C@H]2[C@@H](OC(=O)NCCCCOCCCCNc2cccc3c2C(=O)N(C2CCC(=O)NC2=O)C3=O)C1` (stereo partly drawn) [Compound 88, (1S,3R,7S,8S,8aR)-8-(2-((2R,4R)-4-((tert-butyldimethylsilyl)oxy)-6-oxotetrahydro-2H-pyran-2-yl)ethyl)-3,7-dimethyl-1,2,3,7,8,8a-hexahydronaphthalen-1-yl (4-(4-((2-(2,6-dioxopiperidin-3-yl)-1,3-dioxoisoindolin-4-yl)amino)butoxy)butyl)carbamate], the DC50 is < 50 nM.

For the compound `C[C@H]1C=C2C=C[C@H](C)[C@H](CC[C@@H]3C[C@@H](O)CC(=O)O3)[C@H]2[C@@H](OC(=O)NCCCCOCCCCNc2cccc3c2C(=O)N(C2CCC(=O)NC2=O)C3=O)C1` (stereo partly drawn) [Compound 89, (1S,3R,7S,8S,8aR)-8-(2-((2R,4R)-4-hydroxy-6-oxotetrahydro-2H-pyran-2-yl)ethyl)-3,7-dimethyl-1,2,3,7,8,8a-hexahydronaphthalen-1-yl (4-(4-((2-(2,6-dioxopiperidin-3-yl)-1,3-dioxoisoindolin-4-yl)amino)butoxy)butyl)carbamate], the DC50 is < 50 nM.
